# Biological target: T1, TLR7 (Homo sapiens, UniProt Q9NYK1)
# T1 sequence (Q9NYK1 27-1049): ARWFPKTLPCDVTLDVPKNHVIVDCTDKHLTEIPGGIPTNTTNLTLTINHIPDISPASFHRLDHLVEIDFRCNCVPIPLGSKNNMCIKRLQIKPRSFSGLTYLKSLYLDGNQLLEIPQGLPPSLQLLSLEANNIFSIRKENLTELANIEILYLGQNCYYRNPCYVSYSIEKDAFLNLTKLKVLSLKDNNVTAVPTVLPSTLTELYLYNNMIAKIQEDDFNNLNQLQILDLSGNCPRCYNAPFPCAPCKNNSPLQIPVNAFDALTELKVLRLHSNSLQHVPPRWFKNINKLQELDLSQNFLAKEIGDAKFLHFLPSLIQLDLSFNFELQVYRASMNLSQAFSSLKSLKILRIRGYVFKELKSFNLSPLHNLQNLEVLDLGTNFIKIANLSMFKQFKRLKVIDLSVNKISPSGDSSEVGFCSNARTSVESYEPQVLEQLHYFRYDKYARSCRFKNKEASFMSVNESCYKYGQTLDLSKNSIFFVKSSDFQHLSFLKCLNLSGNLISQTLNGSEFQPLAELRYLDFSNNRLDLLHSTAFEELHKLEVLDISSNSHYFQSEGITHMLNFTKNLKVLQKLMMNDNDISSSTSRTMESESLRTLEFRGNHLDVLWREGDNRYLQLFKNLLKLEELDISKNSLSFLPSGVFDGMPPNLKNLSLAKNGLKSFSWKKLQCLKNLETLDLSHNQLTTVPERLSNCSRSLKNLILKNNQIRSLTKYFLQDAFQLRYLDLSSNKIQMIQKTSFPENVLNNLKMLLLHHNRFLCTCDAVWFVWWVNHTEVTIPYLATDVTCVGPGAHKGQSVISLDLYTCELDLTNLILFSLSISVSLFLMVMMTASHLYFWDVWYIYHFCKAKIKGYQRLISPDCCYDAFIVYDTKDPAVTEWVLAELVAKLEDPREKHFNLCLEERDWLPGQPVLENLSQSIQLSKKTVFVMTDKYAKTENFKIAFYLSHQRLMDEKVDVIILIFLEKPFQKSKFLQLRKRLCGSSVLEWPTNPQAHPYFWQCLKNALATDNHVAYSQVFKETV
# Test: Dose-response relationship between antagonist and R848, human TLR7 reporter gene assay
# Assay type: cell-based
# Set-up: host or cells: HEK293 (TLR7/NF-κB/SEAPorter)
# Experimental: Compounds were dissolved in dimethyl sulfoxide. Human TLR7 reporter cell line (Novus Biological) were seeded in 96-well microtiter plate (AGC techno glass) at 5 × 10^4 cells/well in DMEM (GIBCO) with 10% fetal bovine serum (GIBCO), and 10 μg ml^−1 Blastcidin S HCl (GIBCO) and incubated at 37 °C in 5% CO2. The plates were incubated over-night and then addition with various concentrations of compound. After 30 min, R848 (human TLR7/8 ligand) that was diluted with the medium was added, wherein final concentration was adjusted to 0.01, 0.03, 0.1, 0.3, 1, 3, 10, 30, 100, 300 and 1000 μM. The plates were then incubated an additional 20 ± 1 h at 37 °C in 5% CO2, and then the SEAP activity was measured as activation of human TLR7. The SEAP activity was evaluated as follows: pNPP (Invitrogen) was added to the incubated sample (50 μl/well); after 15 min, 4 mol l^−1 sodium hydroxide solution (nacalai tesque) was added thereto (50 μl/well) to quench the reaction; and the absorbance of each sample was measured at 405 nm with microplate reader SpectraMax M4 (Molecular Devices).
structure (smiles),measurement,setting,value
CCOc1nc(N)c2nc(-c3cncc(F)c3)n(Cc3ccc(CN4C[C@@H]5C[C@H]4CN5C)cc3)c2n1 [Cpd-6],mode of action against R848,,acted as antagonists
same,TLR7 reporter signal,"Cpd-6 0.001 µM, log10[R848 (µM)] 0",12.4492
same,TLR7 reporter signal,"Cpd-6 0.001 µM, log10[R848 (µM)] 0.477121",42.5203
same,TLR7 reporter signal,"Cpd-6 0.001 µM, log10[R848 (µM)] 1",87.7267
same,TLR7 reporter signal,"Cpd-6 0.001 µM, log10[R848 (µM)] 1.47712",99.7073
same,TLR7 reporter signal,"Cpd-6 0.001 µM, log10[R848 (µM)] 2",100.849
same,TLR7 reporter signal,"Cpd-6 0.001 µM, log10[R848 (µM)] 2.47712",102.716
same,TLR7 reporter signal,"Cpd-6 0.001 µM, log10[R848 (µM)] 3",99.4752
same,TLR7 reporter signal,"Cpd-6 0.001 µM, log10[R848 (µM)] -0.522879",1.192
same,TLR7 reporter signal,"Cpd-6 0.001 µM, log10[R848 (µM)] -1",0.7791
same,TLR7 reporter signal,"Cpd-6 0.001 µM, log10[R848 (µM)] -1.52288",0.2957
same,TLR7 reporter signal,"Cpd-6 0.001 µM, log10[R848 (µM)] -2",-0.1404
same,TLR7 reporter signal,"Cpd-6 0.003 µM, log10[R848 (µM)] 0",9.923
same,TLR7 reporter signal,"Cpd-6 0.003 µM, log10[R848 (µM)] 0.477121",37.8265
same,TLR7 reporter signal,"Cpd-6 0.003 µM, log10[R848 (µM)] 1",84.946
same,TLR7 reporter signal,"Cpd-6 0.003 µM, log10[R848 (µM)] 1.47712",98.5645
same,TLR7 reporter signal,"Cpd-6 0.003 µM, log10[R848 (µM)] 2",102.64
same,TLR7 reporter signal,"Cpd-6 0.003 µM, log10[R848 (µM)] 2.47712",101.614
same,TLR7 reporter signal,"Cpd-6 0.003 µM, log10[R848 (µM)] 3",100.614
same,TLR7 reporter signal,"Cpd-6 0.003 µM, log10[R848 (µM)] -0.522879",0.6697
same,TLR7 reporter signal,"Cpd-6 0.003 µM, log10[R848 (µM)] -1",0.7155
same,TLR7 reporter signal,"Cpd-6 0.003 µM, log10[R848 (µM)] -1.52288",0.0547
same,TLR7 reporter signal,"Cpd-6 0.003 µM, log10[R848 (µM)] -2",-0.2513
same,TLR7 reporter signal,"Cpd-6 0.01 µM, log10[R848 (µM)] -2",-0.4139
same,TLR7 reporter signal,"Cpd-6 0.1 μM, log10[R848 (µM)] 0",1.818
same,TLR7 reporter signal,"Cpd-6 0.1 μM, log10[R848 (µM)] 0.477121",11.9813
same,TLR7 reporter signal,"Cpd-6 0.1 μM, log10[R848 (µM)] 1",58.4894
same,TLR7 reporter signal,"Cpd-6 0.1 μM, log10[R848 (µM)] 1.47712",91.4766
same,TLR7 reporter signal,"Cpd-6 0.1 μM, log10[R848 (µM)] 2",100.668
same,TLR7 reporter signal,"Cpd-6 0.1 μM, log10[R848 (µM)] 2.47712",102.716
same,TLR7 reporter signal,"Cpd-6 0.1 μM, log10[R848 (µM)] 3",98.9371
same,TLR7 reporter signal,"Cpd-6 0.1 μM, log10[R848 (µM)] -0.522879",0.03031
same,TLR7 reporter signal,"Cpd-6 0.1 μM, log10[R848 (µM)] -1",0.4916
same,TLR7 reporter signal,"Cpd-6 0.1 μM, log10[R848 (µM)] -1.52288",0.6438
same,TLR7 reporter signal,"Cpd-6 0.1 μM, log10[R848 (µM)] -2",-0.1471
same,TLR7 reporter signal,"Cpd-6 0.3 μM, log10[R848 (µM)] 0",0.5455
same,TLR7 reporter signal,"Cpd-6 0.3 μM, log10[R848 (µM)] 0.477121",4.006
same,TLR7 reporter signal,"Cpd-6 0.3 μM, log10[R848 (µM)] 1",31.2508
same,TLR7 reporter signal,"Cpd-6 0.3 μM, log10[R848 (µM)] 1.47712",73.4318
same,TLR7 reporter signal,"Cpd-6 0.3 μM, log10[R848 (µM)] 2",95.1399
same,TLR7 reporter signal,"Cpd-6 0.3 μM, log10[R848 (µM)] 2.47712",101.486
same,TLR7 reporter signal,"Cpd-6 0.3 μM, log10[R848 (µM)] 3",99.1034
same,TLR7 reporter signal,"Cpd-6 0.3 μM, log10[R848 (µM)] -0.522879",-0.01626
same,TLR7 reporter signal,"Cpd-6 0.3 μM, log10[R848 (µM)] -1",0.3371
same,TLR7 reporter signal,"Cpd-6 0.3 μM, log10[R848 (µM)] -1.52288",0.2617
same,TLR7 reporter signal,"Cpd-6 0.3 μM, log10[R848 (µM)] -2",-0.3984
same,TLR7 reporter signal,"Cpd-6 1 μM, log10[R848 (µM)] 0",0.1648
same,TLR7 reporter signal,"Cpd-6 1 μM, log10[R848 (µM)] 0.477121",0.6756
same,TLR7 reporter signal,"Cpd-6 1 μM, log10[R848 (µM)] 1",11.4786
same,TLR7 reporter signal,"Cpd-6 1 μM, log10[R848 (µM)] 1.47712",45.6507
same,TLR7 reporter signal,"Cpd-6 1 μM, log10[R848 (µM)] 2",84.5912
same,TLR7 reporter signal,"Cpd-6 1 μM, log10[R848 (µM)] 2.47712",96.6131
same,TLR7 reporter signal,"Cpd-6 1 μM, log10[R848 (µM)] 3",99.4242
same,TLR7 reporter signal,"Cpd-6 1 μM, log10[R848 (µM)] -0.522879",-0.03548
same,TLR7 reporter signal,"Cpd-6 1 μM, log10[R848 (µM)] -1",0.7835
same,TLR7 reporter signal,"Cpd-6 1 μM, log10[R848 (µM)] -1.52288",0.4073
same,TLR7 reporter signal,"Cpd-6 1 μM, log10[R848 (µM)] -2",-0.4287
same,TLR7 reporter signal,"Cpd-6 3 μM, log10[R848 (µM)] 0",-0.1671
same,TLR7 reporter signal,"Cpd-6 3 μM, log10[R848 (µM)] 0.477121",-0.3319
same,TLR7 reporter signal,"Cpd-6 3 μM, log10[R848 (µM)] 1",1.145
same,TLR7 reporter signal,"Cpd-6 3 μM, log10[R848 (µM)] 1.47712",10.9886
same,TLR7 reporter signal,"Cpd-6 3 μM, log10[R848 (µM)] 2",45.7638
same,TLR7 reporter signal,"Cpd-6 3 μM, log10[R848 (µM)] 2.47712",76.6561
same,TLR7 reporter signal,"Cpd-6 3 μM, log10[R848 (µM)] 3",93.6623
same,TLR7 reporter signal,"Cpd-6 3 μM, log10[R848 (µM)] -0.522879",-0.0924
same,TLR7 reporter signal,"Cpd-6 3 μM, log10[R848 (µM)] -1",0.3881
same,TLR7 reporter signal,"Cpd-6 3 μM, log10[R848 (µM)] -1.52288",0.1811
same,TLR7 reporter signal,"Cpd-6 3 μM, log10[R848 (µM)] -2",-0.3984
same,TLR7 reporter signal,"Cpd-6 10 μM, log10[R848 (µM)] 0",-0.3585
same,TLR7 reporter signal,"Cpd-6 10 μM, log10[R848 (µM)] 0.477121",0.00887
same,TLR7 reporter signal,"Cpd-6 10 μM, log10[R848 (µM)] 1",-0.3311
same,TLR7 reporter signal,"Cpd-6 10 μM, log10[R848 (µM)] 1.47712",1.483
same,TLR7 reporter signal,"Cpd-6 10 μM, log10[R848 (µM)] 2",7.633
same,TLR7 reporter signal,"Cpd-6 10 μM, log10[R848 (µM)] 2.47712",30.5109
same,TLR7 reporter signal,"Cpd-6 10 μM, log10[R848 (µM)] 3",70.7738
same,TLR7 reporter signal,"Cpd-6 10 μM, log10[R848 (µM)] -0.522879",0.08501
same,TLR7 reporter signal,"Cpd-6 10 μM, log10[R848 (µM)] -1",0.6054
same,TLR7 reporter signal,"Cpd-6 10 μM, log10[R848 (µM)] -1.52288",0.5159
same,TLR7 reporter signal,"Cpd-6 10 μM, log10[R848 (µM)] -2",-0.6941
same,TLR7 reporter signal,"Cpd-6 30 μM, log10[R848 (µM)] 0",-0.8205
same,TLR7 reporter signal,"Cpd-6 30 μM, log10[R848 (µM)] 0.477121",-0.1671
same,TLR7 reporter signal,"Cpd-6 30 μM, log10[R848 (µM)] 1",-0.3932
same,TLR7 reporter signal,"Cpd-6 30 μM, log10[R848 (µM)] 1.47712",0.7037
same,TLR7 reporter signal,"Cpd-6 30 μM, log10[R848 (µM)] 2",0.5559
same,TLR7 reporter signal,"Cpd-6 30 μM, log10[R848 (µM)] 2.47712",4.178
same,TLR7 reporter signal,"Cpd-6 30 μM, log10[R848 (µM)] 3",28.3207
same,TLR7 reporter signal,"Cpd-6 30 μM, log10[R848 (µM)] -0.522879",-0.2084
same,TLR7 reporter signal,"Cpd-6 30 μM, log10[R848 (µM)] -1",0.05618
same,TLR7 reporter signal,"Cpd-6 30 μM, log10[R848 (µM)] -1.52288",0.1597
same,TLR7 reporter signal,"Cpd-6 30 μM, log10[R848 (µM)] -2",-0.9107
same,TLR7 reporter signal,"Cpd-6 100 μM, log10[R848 (µM)] 0",-0.4154
same,TLR7 reporter signal,"Cpd-6 100 μM, log10[R848 (µM)] 0.477121",-0.3459
same,TLR7 reporter signal,"Cpd-6 100 μM, log10[R848 (µM)] 1",-0.6712
same,TLR7 reporter signal,"Cpd-6 100 μM, log10[R848 (µM)] 1.47712",0.8663
same,TLR7 reporter signal,"Cpd-6 100 μM, log10[R848 (µM)] 2",0.5381
same,TLR7 reporter signal,"Cpd-6 100 μM, log10[R848 (µM)] 2.47712",4.485
same,TLR7 reporter signal,"Cpd-6 100 μM, log10[R848 (µM)] 3",25.5163
same,TLR7 reporter signal,"Cpd-6 100 μM, log10[R848 (µM)] -0.522879",-0.01478
same,TLR7 reporter signal,"Cpd-6 100 μM, log10[R848 (µM)] -1",0.612
same,TLR7 reporter signal,"Cpd-6 100 μM, log10[R848 (µM)] -1.52288",1.063
same,TLR7 reporter signal,"Cpd-6 100 μM, log10[R848 (µM)] -2",-0.5529
